What all share (assay): Bliss excess, mean over the matrix (fraction); higher = more synergy
One assay deals with 786-0 (Kidney Carcinoma). Put shortly: (§1)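 After 24 hours at 37°C and 5% CO2 in 1536-well plates, cells in DMEM/F12 or RPMI plus 10% FBS received two-drug dose matrices for 72 hours. Viability came from CellTiter-Glo 2.0 luminescence and was scaled as inhibition, anchored at 0 by vehicle wells and at 1 by blank wells. Combination Emax is taken as the second-highest inhibition in the matrix, and Bliss excess as the observed combination effect less EA + EB − EA·EB, with EA and EB the single-agent effects.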

In assay [1] the test system is AsPC-1 (Pancreatic Carcinoma). Put shortly: as §1
The test system of the next assay is CHL-1 (Melanoma). In outline: as §1
Assay [2] relates to COLO-684 (Endometrial Carcinoma). In outline:
as §1

For assay [3], the system named is HSC-3 (Oral Cavity Carcinoma). Put shortly: as §1
Assay [4] has as its system HTC-C3 (Thyroid Gland Carcinoma). In outline: as §1
The test system of assay [5] is JHH-1 (Hepatocellular Carcinoma). Put shortly: as §1
The next assay deals with KYM-1 (Rhabdomyosarcoma). Put shortly: as §1
Assay [6] relates to NCI-H1155 (Non-Small Cell Lung Carcinoma). In outline:
as §1

In assay [7] the test system is OCI-AML5 (Acute Myeloid Leukemia). Put shortly:
as §1

Assay [8] has as its system OV-90 (Ovarian Carcinoma). In outline:
as §1

Assay [9] concerns OVTOKO (Ovarian Carcinoma). In outline: as §1
Assay [10] concerns PANC-02-03 (Pancreatic Carcinoma). Put shortly:
as §1

Assay [11] has as its system PC-14 (Lung Adenocarcinoma). Put shortly: as §1
Assay [12] has as its system RL95-2 (Endometrial Carcinoma). Put shortly: as §1
Assay [13] has as its system RMG-I (Ovarian Carcinoma). Put shortly:
as §1

The subject of assay [14] is RPMI-8866 (Chronic Myelogenous Leukemia). Put shortly:
as §1

A further assay has as its system RT4 (Bladder Carcinoma). Put shortly: as §1
Assay [15] concerns SK-MM-2 (Plasma Cell Myeloma). In outline:
as §1

For assay [16], the system named is SNU-175 (Colorectal Carcinoma). In outline:
as §1

With `CN(C)CCCOc1ccc(-c2ccc3ncc4c(c3c2)n(C2CCOCC2)c(=O)n4C)cn1` [AZD0156] + C=CCn1c(=O)c2cnc(Nc3ccc(N4CCN(C)CC4)cc3)nc2n1-c1cccc(C(C)(C)O)n1 [AZD1775] (first compound max 1 µM, partner max 1 µM), the Bliss excess with 786-0 (Kidney Carcinoma) was 0.0005; in assay [1] it was -0.0179; in the assay on CHL-1 (Melanoma), -0.0427; in assay [2], -0.0266; in assay [3], -0.0534; in assay [4], -0.0187. The Bliss excess in assay [5] is -0.0501; in the assay with KYM-1 (Rhabdomyosarcoma), -0.0123; in [6], -0.0213; in assay [7], -0.0359; in [8], -0.0335; in assay [9], -0.0255. In addition, the Bliss excess is -0.026 in assay [10]; -0.0209 in assay [11]; -0.03 in [12]; -0.0545 in assay [13]; -0.0175 in assay [14]; -0.0136 in the assay on RT4 (Bladder Carcinoma). For the same compound, the Bliss excess in assay [15] was 0.0058; in [16] it was 0.0169.
For `CN(C)CCCOc1ccc(-c2ccc3ncc4c(c3c2)n(C2CCOCC2)c(=O)n4C)cn1` [AZD0156] + CCN(CCO)CCCOc1ccc2c(Nc3cc(CC(=O)Nc4cccc(F)c4)[nH]n3)ncnc2c1 [AZD2811] (first compound max 1 µM, 7x7, partner max 1 µM), the Bliss excess in the assay with 786-0 (Kidney Carcinoma) was -0.0107; in [1] it was -0.0461; with CHL-1 (Melanoma) it was 0.0015; in [2] it was -0.0036; in assay [3], -0.0087; in [4], -0.0198. For the same compound, the Bliss excess is -0.0159 in assay [5]; -0.0186 with KYM-1 (Rhabdomyosarcoma); -0.0175 in assay [6]; -0.0185 in assay [7]; -0.0823 in assay [8]; -0.0337 in [9]. Moreover, the Bliss excess in assay [10] is -0.0371; in assay [11] it was -0.0042; in assay [12], 0.0016; in assay [13], -0.072; in assay [14], 0.0518; in the assay with RT4 (Bladder Carcinoma), -0.0063. The Bliss excess in [15] is -0.0131; in assay [16], -0.0101.
`CN(C)CCCOc1ccc(-c2ccc3ncc4c(c3c2)n(C2CCOCC2)c(=O)n4C)cn1` [AZD0156] + C[C@@H]1COCCN1C2=NC(=NC(=C2)C3(CC3)[S@](=N)(=O)C)C4=C5C=CNC5=NC=C4 [AZD6738] (first compound max 1 µM, 7x7, partner max 10 µM): the Bliss excess with 786-0 (Kidney Carcinoma) is -0.0177; in assay [1] it was -0.0184; in the assay with CHL-1 (Melanoma) it was 0.0023; in assay [2] it was -0.0496; in assay [3] it was -0.0032; in [4], 0.0193. Also, the Bliss excess in assay [5] is 0.0102; in the assay with KYM-1 (Rhabdomyosarcoma) it was -0.0102; in assay [6], -0.0289; in assay [7], -0.0479; in [8] it was -0.0323; in assay [9], 0.0039. Moreover, the Bliss excess in assay [10] was -0.0412; in assay [11], 0.0043; in [12], -0.0387; in assay [13] it was -0.0095; in [14], -0.0014; in the assay with RT4 (Bladder Carcinoma) it was -0.0408. Besides, the Bliss excess in assay [15] is -0.0524; in [16], 0.0006.
As to `CN(C)CCCOc1ccc(-c2ccc3ncc4c(c3c2)n(C2CCOCC2)c(=O)n4C)cn1` [AZD0156] + O=C(c1cc(Cc2n[nH]c(=O)c3ccccc23)ccc1F)N1CCN(C(=O)C2CC2)CC1 [Olaparib] (first compound max 3 µM, partner max 3 µM), the Bliss excess in the assay with 786-0 (Kidney Carcinoma) is 0.0418; in [1], 0.005; with CHL-1 (Melanoma) it was -0.0224; in assay [2], 0.0274; in [3] it was 0.132; in assay [4] it was -0.0502. In addition, the Bliss excess in assay [5] is 0.0084; in the assay with KYM-1 (Rhabdomyosarcoma) it was 0.185; in [6] it was 0.103; in assay [7], 0.0103; in assay [8] it was 0.035; in [9] it was -0.0032. In addition, the Bliss excess in [10] is 0.0278; in assay [11], -0.0009; in assay [12], 0.11; in [13], -0.0428; in [14], 0.0607; in the assay with RT4 (Bladder Carcinoma) it was -0.0044. Further, the Bliss excess in assay [15] is -0.161; in assay [16], 0.105.
As to `C=CCn1c(=O)c2cnc(Nc3ccc(N4CCN(C)CC4)cc3)nc2n1-c1cccc(C(C)(C)O)n1` [AZD1775] + C1CN(CCC1(C(=O)N[C@@H](CCO)C2=CC=C(C=C2)Cl)N)C3=NC=NC4=C3C=CN4 [Capivasertib] (first compound max 3 µM, partner max 3 µM), the Bliss excess with 786-0 (Kidney Carcinoma) was -0.0169; in [1], -0.0654; with CHL-1 (Melanoma), 0.0106; in assay [2], -0.0937; in [3] it was 0.0552; in assay [4], -0.0653. Besides, the Bliss excess was -0.018 in assay [5]; -0.0084 in the assay on KYM-1 (Rhabdomyosarcoma); 0.0056 in [6]; -0.0443 in [7]; -0.0235 in assay [8]; -0.0135 in [9]. Besides, the Bliss excess in [10] was -0.018; in [11] it was -0.018; in assay [12] it was 0.0093; in assay [13] it was -0.0349; in assay [14], 0.0091; in the assay with RT4 (Bladder Carcinoma) it was -0.0355. Also, the Bliss excess is -0.0629 in assay [15] and 0.0244 in assay [16].
Take `C=CCn1c(=O)c2cnc(Nc3ccc(N4CCN(C)CC4)cc3)nc2n1-c1cccc(C(C)(C)O)n1` [AZD1775] + C[C@@H]1COCCN1C2=NC(=NC(=C2)C3(CC3)[S@](=N)(=O)C)C4=C5C=CNC5=NC=C4 [AZD6738] (first compound max 1 µM, partner max 10 µM): the Bliss excess is 0.109 with 786-0 (Kidney Carcinoma); -0.0571 in [1]; -0.0012 with CHL-1 (Melanoma); 0.0245 in [2]; 0.0038 in assay [3]; 0.101 in [4]. The Bliss excess in assay [5] was 0.0194; in the assay on KYM-1 (Rhabdomyosarcoma), 0.0587; in assay [6] it was 0.0817; in assay [7] it was 0.005; in [8] it was -0.102; in assay [9], -0.0308. Moreover, the Bliss excess is -0.0701 in assay [10]; -0.005 in assay [11]; 0.0402 in assay [12]; -0.0161 in assay [13]; 0.0078 in assay [14]; -0.0068 with RT4 (Bladder Carcinoma). For the same compound, the Bliss excess is -0.0211 in assay [15] and 0.039 in assay [16].

Source of the values: the supplement of paper PMC11061612.
